From publication PMC9851200, “Multiparameter phenotypic screening for endogenous TFEB and TFE3 translocation identifies novel chemical series modulating lysosome function” (Autophagy, 2022)
“Also recorded” adds a separate entry of the source.

Assays:
MAPK10/JNK3 = MAPK10/JNK3 (Homo sapiens, UniProt P53779); format: binding
STK10/LOK = STK10/LOK (Homo sapiens, UniProt O94804); format: binding
[1] = molecular target: kinases (KINOMEscan panel) (Homo sapiens, UniProt O94768); format: binding
[2] = molecular target: kinases (KINOMEscan panel) (Homo sapiens, UniProt Q9H093); format: binding
Sequence of kinases (KINOMEscan panel) (Homo sapiens, UniProt Q9H093) (Q9H093 whole entry): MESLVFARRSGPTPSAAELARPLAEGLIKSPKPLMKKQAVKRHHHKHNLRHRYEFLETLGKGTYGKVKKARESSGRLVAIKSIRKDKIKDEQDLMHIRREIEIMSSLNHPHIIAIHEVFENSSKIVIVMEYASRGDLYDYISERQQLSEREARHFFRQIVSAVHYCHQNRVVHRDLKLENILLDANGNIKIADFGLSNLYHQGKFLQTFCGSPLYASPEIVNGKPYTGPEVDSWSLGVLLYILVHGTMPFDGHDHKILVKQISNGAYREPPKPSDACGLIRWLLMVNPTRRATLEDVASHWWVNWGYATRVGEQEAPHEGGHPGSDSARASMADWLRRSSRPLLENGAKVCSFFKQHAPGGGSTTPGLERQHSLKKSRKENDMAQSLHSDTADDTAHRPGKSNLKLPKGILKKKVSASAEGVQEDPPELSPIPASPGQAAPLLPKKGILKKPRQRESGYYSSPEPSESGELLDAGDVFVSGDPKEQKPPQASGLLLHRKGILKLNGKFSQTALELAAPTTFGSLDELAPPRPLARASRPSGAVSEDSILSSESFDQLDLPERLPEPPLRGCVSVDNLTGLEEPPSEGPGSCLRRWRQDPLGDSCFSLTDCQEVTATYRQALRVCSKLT

TLK2 = molecular target: T1, TLK2 (Homo sapiens, UniProt Q86UE8); assay: KiNativ in-cell kinase binding, TLK2; conditions: SH-SY5Y cells
T1 construct: endogenous in cells; host or cells: SH-SY5Y
T1 sequence (Q86UE8 whole entry): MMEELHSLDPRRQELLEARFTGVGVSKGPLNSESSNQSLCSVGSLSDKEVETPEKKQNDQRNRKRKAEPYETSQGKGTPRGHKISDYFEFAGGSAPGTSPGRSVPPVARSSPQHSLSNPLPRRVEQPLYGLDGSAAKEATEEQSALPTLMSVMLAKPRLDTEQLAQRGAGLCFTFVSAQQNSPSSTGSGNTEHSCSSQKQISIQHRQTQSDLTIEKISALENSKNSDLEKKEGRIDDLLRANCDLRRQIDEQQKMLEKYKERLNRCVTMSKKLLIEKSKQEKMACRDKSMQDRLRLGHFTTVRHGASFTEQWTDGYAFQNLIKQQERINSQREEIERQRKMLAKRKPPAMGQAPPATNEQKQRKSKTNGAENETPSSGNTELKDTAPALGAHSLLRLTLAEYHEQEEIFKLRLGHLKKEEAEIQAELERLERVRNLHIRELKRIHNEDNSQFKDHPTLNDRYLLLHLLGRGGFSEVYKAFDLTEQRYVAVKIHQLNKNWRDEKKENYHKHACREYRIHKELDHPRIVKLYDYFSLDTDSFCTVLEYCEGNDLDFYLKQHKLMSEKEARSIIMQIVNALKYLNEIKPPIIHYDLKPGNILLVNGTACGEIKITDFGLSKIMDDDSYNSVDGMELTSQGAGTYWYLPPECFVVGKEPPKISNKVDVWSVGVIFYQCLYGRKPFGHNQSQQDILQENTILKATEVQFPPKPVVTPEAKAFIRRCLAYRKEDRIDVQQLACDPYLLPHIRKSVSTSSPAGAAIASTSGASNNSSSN
From the text: (§1) As KINOMEscan is an in vitro assay, and as different cell types have variable kinase expression profiles we sought to determine the kinase binding profile in our SH-SY5Y TFEB-relocalization cell model. […] Bound kinases were pulled down and analyzed by mass spectrometry to determine the in situ kinase binding profile for each compound.

SRPK1 = molecular target: T2, SRPK1 (Homo sapiens, UniProt Q96SB4); assay: KiNativ in-cell kinase binding, SRPK1; conditions: SH-SY5Y cells, Labeling Site Lys2
T2 construct: endogenous in cells; host or cells: SH-SY5Y
T2 sequence (Q96SB4 whole entry): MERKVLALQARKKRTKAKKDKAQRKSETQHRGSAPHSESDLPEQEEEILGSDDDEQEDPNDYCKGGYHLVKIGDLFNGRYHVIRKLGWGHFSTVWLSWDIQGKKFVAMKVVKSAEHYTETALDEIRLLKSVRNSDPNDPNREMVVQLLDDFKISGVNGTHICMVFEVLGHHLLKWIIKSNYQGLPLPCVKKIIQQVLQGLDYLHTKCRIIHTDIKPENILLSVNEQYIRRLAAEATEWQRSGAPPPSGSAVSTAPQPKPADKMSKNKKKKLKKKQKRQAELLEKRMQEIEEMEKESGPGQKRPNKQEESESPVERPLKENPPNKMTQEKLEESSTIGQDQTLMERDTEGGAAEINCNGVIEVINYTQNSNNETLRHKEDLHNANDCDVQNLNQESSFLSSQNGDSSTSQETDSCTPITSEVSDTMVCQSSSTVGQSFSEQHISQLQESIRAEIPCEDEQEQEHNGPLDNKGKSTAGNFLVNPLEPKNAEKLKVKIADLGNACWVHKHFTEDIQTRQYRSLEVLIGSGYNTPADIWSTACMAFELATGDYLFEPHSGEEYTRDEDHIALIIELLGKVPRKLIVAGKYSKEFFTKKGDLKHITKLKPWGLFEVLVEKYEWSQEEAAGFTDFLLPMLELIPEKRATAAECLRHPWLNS
From the text: as §1

TFE3 = TFE3 translocation in CRISPRi PRKD2 or PRKD3 knockdown SH-SY5Y cells; format: cell-based; conditions: SH-SY5Y dCas9-KRAB, Scr, PRKD2 or PRKD3 targeting guides, increasing concentrations
PRKD3 = molecular target: T3, PRKD3 (Homo sapiens, UniProt O94806); assay: KiNativ in-cell kinase binding, PRKD3; parameters: endogenous in cells; host or cells: SH-SY5Y; conditions: for inhibition at 2 µM: SH-SY5Y cells
T3 sequence (O94806 1-890): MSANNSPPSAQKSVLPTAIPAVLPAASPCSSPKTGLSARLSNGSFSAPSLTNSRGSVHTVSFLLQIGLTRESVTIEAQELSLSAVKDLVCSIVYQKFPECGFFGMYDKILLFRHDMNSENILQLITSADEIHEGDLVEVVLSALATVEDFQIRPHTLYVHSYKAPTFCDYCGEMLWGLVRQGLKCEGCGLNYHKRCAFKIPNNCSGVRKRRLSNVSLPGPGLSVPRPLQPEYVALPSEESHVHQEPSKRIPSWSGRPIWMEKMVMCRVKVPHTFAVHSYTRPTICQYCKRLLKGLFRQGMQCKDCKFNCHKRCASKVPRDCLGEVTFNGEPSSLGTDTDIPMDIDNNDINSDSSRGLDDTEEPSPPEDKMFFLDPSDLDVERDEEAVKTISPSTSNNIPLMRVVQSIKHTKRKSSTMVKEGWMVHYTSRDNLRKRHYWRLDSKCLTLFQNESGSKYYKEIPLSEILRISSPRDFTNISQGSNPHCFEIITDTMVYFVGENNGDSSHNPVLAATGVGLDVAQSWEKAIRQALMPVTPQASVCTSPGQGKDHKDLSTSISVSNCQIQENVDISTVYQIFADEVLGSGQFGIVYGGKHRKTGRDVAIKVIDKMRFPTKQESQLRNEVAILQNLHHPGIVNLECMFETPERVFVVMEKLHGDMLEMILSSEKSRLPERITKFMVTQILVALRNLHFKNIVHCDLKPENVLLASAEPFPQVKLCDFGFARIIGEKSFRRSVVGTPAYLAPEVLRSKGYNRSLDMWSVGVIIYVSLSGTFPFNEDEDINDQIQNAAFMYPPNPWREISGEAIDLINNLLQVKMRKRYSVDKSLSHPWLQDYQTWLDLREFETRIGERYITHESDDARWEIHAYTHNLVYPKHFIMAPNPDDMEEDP
From the text: as §1

Sequence of MAPK10/JNK3 (P53779 whole entry): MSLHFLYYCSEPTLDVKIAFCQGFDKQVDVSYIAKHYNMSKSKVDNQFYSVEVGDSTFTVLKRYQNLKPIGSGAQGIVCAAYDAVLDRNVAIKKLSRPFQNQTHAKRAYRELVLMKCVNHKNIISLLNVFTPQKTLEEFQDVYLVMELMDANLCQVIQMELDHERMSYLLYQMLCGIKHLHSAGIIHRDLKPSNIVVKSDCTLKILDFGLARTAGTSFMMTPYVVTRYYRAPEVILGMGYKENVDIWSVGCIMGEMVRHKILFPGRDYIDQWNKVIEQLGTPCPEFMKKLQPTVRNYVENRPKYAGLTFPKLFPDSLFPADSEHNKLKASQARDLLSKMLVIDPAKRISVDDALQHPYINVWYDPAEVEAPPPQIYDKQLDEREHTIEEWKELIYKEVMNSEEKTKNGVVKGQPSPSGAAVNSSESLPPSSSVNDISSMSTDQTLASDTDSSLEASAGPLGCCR
Sequence of kinases (KINOMEscan panel) (Homo sapiens, UniProt O94768) (O94768 whole entry): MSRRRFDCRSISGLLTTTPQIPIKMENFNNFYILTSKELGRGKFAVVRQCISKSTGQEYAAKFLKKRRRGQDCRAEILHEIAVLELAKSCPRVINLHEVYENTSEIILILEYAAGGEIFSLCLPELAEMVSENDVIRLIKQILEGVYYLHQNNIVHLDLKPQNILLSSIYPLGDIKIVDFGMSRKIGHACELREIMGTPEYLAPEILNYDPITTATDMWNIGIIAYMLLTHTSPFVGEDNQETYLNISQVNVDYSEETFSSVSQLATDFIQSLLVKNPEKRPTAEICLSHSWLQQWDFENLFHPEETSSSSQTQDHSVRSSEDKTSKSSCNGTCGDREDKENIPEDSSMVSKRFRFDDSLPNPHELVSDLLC
Sequence of STK10/LOK (O94804 whole entry): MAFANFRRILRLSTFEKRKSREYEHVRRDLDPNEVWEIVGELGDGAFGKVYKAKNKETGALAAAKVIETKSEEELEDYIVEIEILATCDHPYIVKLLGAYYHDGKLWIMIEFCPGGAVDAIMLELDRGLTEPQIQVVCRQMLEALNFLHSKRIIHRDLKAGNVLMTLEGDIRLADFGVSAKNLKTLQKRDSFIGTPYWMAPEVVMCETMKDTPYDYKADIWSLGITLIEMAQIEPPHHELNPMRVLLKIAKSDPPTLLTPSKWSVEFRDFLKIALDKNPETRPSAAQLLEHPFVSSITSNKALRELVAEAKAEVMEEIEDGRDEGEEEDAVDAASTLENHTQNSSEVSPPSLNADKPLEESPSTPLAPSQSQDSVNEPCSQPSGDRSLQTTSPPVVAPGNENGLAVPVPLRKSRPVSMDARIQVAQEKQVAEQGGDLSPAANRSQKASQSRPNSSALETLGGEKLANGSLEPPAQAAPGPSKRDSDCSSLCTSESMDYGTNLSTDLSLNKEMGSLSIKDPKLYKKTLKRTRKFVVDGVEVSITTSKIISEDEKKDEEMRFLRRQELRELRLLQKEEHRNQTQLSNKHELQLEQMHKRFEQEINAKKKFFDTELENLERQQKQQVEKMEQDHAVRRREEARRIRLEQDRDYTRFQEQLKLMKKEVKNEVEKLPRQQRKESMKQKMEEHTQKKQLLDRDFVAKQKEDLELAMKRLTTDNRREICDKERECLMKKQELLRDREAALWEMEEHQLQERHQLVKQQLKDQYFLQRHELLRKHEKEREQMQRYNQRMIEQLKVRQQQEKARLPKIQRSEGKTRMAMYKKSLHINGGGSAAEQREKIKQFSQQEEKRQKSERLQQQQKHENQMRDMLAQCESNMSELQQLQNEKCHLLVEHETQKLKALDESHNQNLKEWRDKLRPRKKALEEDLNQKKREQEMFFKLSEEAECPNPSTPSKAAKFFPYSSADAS

## Cc1cccc(-c2nc(N(C)c3ccc4ncsc4c3)c3ccccc3n2)n1 [NK-161]
MAPK10/JNK3
  KINOMEscan MAPK10/JNK3: 16
STK10/LOK
  KINOMEscan STK10/LOK: 19
[1]
  KINOMEscan STK17B/DRAK2: 4
[2]
  KINOMEscan NUAK2/SNARK: 15

## Cc1cccc(-c2nc(Nc3ccc4ncsc4c3)c3ccccc3n2)n1 [NK140]
TLK2; Labeling Site Lys1, YVAVKIHQLNK
  inhibition at 2 µM: 52.7%
TLK2; Labeling Site Lys2, YLNEIKPPIIHYDLKPGNILLVNGTACGEIK
  inhibition at 2 µM: 50%
SRPK1
  inhibition at 2 µM: 67.9%
TFE3
  TFE3 nuclear translocation in response to compound after PRKD knockdown (in words): no increased activity in the TFE3 translocation assay; also recorded: not altered by knockdown of PRKD
PRKD3; Labeling Site Lys1, DVAIKVIDK
  inhibition at 2 µM: 71.5%
PRKD3; Labeling Site Lys2, NIVHCDLKPENVLLASAEPFPQVK
  inhibition at 2 µM: 78.5%
PRKD3; SH-SY5Y cells treated 2 h
  KiNativ binding of PRKD3 (in words): bound
